Test results taken from patent publication US8609602B2, “Cleaning solution” (priority 2010, dated 2013).
Like-named read-outs stand apart in the source and are kept apart here.

Experiments:
[1] = 6.7% TRIZMA in 67% aqueous 2-propanol; (10% w/v)
Protocol: Different detergent or detergent/base stock solutions were mixed in culture tubes, vortexed for 1 minute, and allowed to completely dissolve over an additional 30 minutes. The stock solutions were either used undiluted or diluted with additional water or alcohol in predetermined ratios. Diluted solutions were again mixed by vortexing for 1 minute and then allowing the solution to sit for 30 minutes.
A representative aliphatic acid, the fatty acid stearic acid, was added to the tube in a predetermined quantity between 10 mg/ml and 20 mg/ml. […] Solutions were then cooled to room temperature (RT) and after 6 hours, they were evaluated again for evidence of precipitation.
The following experiment is similar to Experiment 1, except that addition of a non-toxic buffer and/or a short-chained alcohol was investigated to attempt to improve upon the above results. Various bases and alcohols were tested. […] A representative non-toxic base, TRIZMA® (SIGMA-ALDRICH®, St. Louis, Mo.), was first tested (also known as TRIS, and Tris(hydroxymethyl)aminomethane). […] For this test, the amount of contaminating aliphatic acid, stearic acid, added to the solution was increased to 100 mg/ml.

[2] = format: physicochemical; conditions: for Solubility of added stearic acid in detergent solution (in words): stearic acid 10-20 mg/ml, overnight at 40° C.
Protocol: Detergents classified as ionic and non-ionic were tested, as well as carbohydrate and polyethylene glycol based non-ionic detergents.

[3] = MSDS / known values; cited from earlier work

Compound	Stearic acid completely solubilized by TRIZMA base without detergent [1] [mg/mL]	Parts surfactant needed to dissolve stearic acid ([2]; aqueous detergent solution)	Solubility of added stearic acid in detergent solution (in words) [2]	Solubility of added stearic acid in detergent solution (in words) ([2]; listed as n-dodecyl-N,N-dimethylamine-N-oxide)	LD50 [3] [mg/kg]
Tris(hydroxymethyl)aminomethane [TRIZMA base]	100				
CCCCCCCCCCCC[N+](C)(C)[O-] [C-12 dimethyl amine oxide, n-dodecyl-N,N-dimethylamine-N-oxide]		4 parts surfactant could dissolve 1 part stearic acid	Complete solubility at all concentrations of added stearic acid	quantitatively facilitated the solubilization	5000
